Structures can show the parent of a compound that is named as a salt.
These molecules were tested against GST-tagged truncated human mutant G2019S LRRK2 (Homo sapiens (Human), UniProt Q5S007, G2019S) (assay: LRRK2 G2019S Km ATP LanthaScreen assay). Conditions: G2019S LRRK2, 134 μM ATP (Km ATP), LRRKtide substrate.
Sequence of GST-tagged truncated human mutant G2019S LRRK2 (Q5S007 970-2527 G2019S): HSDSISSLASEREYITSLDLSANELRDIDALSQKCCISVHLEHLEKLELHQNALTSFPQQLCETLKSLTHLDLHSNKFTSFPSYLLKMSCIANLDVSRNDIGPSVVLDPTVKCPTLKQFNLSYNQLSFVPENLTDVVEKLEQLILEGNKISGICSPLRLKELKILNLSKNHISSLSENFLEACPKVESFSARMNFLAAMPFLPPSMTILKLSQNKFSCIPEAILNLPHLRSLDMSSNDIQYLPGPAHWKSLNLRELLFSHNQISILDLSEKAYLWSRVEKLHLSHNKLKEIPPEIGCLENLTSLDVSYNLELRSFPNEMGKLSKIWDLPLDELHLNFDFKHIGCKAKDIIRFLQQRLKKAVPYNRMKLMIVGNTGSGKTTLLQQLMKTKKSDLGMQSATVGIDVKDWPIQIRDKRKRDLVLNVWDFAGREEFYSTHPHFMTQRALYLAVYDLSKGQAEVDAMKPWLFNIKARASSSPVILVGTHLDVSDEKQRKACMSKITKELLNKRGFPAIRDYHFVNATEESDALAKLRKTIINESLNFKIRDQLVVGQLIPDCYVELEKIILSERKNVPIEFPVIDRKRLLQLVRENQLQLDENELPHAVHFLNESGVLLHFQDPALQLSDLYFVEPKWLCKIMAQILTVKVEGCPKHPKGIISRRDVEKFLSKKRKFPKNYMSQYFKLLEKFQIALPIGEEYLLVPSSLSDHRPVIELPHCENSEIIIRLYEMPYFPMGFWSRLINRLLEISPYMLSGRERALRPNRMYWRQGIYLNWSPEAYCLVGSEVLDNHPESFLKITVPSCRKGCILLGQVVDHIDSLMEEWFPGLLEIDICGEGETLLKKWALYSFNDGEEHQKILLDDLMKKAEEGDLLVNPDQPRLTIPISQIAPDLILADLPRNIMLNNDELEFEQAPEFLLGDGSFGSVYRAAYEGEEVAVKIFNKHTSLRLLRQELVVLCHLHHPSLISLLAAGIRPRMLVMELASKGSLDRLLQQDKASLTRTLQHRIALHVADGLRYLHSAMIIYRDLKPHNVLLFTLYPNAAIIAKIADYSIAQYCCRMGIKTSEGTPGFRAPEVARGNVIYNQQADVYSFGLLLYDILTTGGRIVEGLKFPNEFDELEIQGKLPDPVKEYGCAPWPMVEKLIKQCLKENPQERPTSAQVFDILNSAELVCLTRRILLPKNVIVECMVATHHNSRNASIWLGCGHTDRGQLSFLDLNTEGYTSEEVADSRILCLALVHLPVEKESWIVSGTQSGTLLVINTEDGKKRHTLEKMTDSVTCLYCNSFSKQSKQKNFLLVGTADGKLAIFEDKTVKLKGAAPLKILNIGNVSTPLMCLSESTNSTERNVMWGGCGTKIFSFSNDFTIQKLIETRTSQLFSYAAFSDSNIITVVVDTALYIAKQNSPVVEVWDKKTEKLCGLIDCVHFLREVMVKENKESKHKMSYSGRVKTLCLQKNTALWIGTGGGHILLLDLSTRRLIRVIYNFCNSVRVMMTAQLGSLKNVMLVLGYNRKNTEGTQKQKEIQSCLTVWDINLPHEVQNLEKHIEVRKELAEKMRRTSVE
Format: biochemical
Method in brief: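 Ten-point compound series (highest 9.99 μM in DMSO) preincubated 15 min with 1.25 nM GST-tagged truncated human LRRK2 G2019S, then 90 min reaction at ambient temperature with 134 μM ATP (Km) and fluorescein-labelled LRRKtide, pH 8.5. Phosphorylation read as 520/495 nm emission ratio via Tb-labelled antibody; IC50 from 4P logistic regression.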
For `Cc1nn(C2CC2)c2c1OC[C@@H]1COC[C@H]1Nc1nc(ncc1C(F)(F)F)N2` [Ex-5.2, (10aS,13aS)-3-cyclopropyl-1-methyl-8-(trifluoromethyl)-3,4,10a,11,13a,14-hexahydro-10H,13H-5,9-(azeno)furo[3,4-k]pyrazolo[4,3-b][1]oxa[4,6,10]triazacyclotridecine], the “LRRK2 pIC50” value was 9.46.
For `C=CCn1nc(C)c2c1Nc1ncc(C(F)(F)F)c(n1)N[C@@H]1COC[C@H]1CO2` [Ex-5.3, (10aS,13aS)-3-allyl-1-methyl-8-(trifluoromethyl)-3,4,10a,11,13a,14-hexahydro-10H,13H-5,9-(azeno)furo[3,4-k]pyrazolo[4,3-b][1]oxa[4,6,10]triazacyclotridecine], the “LRRK2 pIC50” value was 7.30.
In the case of `Cc1nn(C2CCC2)c2c1OCC1CCCC1Nc1nc(ncc1C(F)(F)F)N2` [Ex-5.4, (10aR,13aR)- or (10aS,13aS)-3-cyclobutyl-1-methyl-8-(trifluoromethyl)-3,4,10a,11,12,13,13a,14-octahydro-10H-5,9-(azeno)cyclopenta[k]pyrazolo[4,3-b][1]oxa[4,6,10]triazacyclotridecine], the “LRRK2 pIC50” value is reported as 6.78.
With `Cc1nn(C2CCC2)c2c1OCC1CCCC1Nc1nc(ncc1C(F)(F)F)N2` [Ex-5.5, (10aR,13aR)- or (10aS,13aS)-3-cyclobutyl-1-methyl-8-(trifluoromethyl)-3,4,10a,11,12,13,13a,14-octahydro-10H-5,9-(azeno)cyclopenta[k]pyrazolo[4,3-b][1]oxa[4,6, 10]triazacyclotridecine] the “LRRK2 pIC50” value was 10.06.
For `COC(=O)c1nn(C2CCC2)c2c1OC[C@@H]1COC[C@H]1Nc1nc(ncc1C(F)(F)F)N2` [Ex-5.6, methyl (10aS,13aS)-3-cyclobutyl-8-(trifluoromethyl)-3,4,10a,11,13a,14-hexahydro-10H,13H-5,9-(azeno)furo[3,4-k]pyrazolo[4,3-b][1]oxa[4,6,10]triazacyclotridecine-1-carboxylate], the “LRRK2 pIC50” value was 9.80.
For `CC(C)n1nc(CO)c2c1Nc1ncc(C(F)(F)F)c(n1)N[C@@H]1CC[C@H]1CO2` [Ex-6.5, ((10aR,12aR)-3-isopropyl-8-(trifluoromethyl)-3,4,10,10a,11,12,12a,13-octahydro-5,9-(azeno)cyclobuta[k]pyrazolo[4,3-b][1]oxa[4,6,10]triazacyclotridecin-1-yl)methanol], the “LRRK2 pIC50” value was >10.09.
In the case of `OCc1nn(C2CCC2)c2c1OC[C@@H]1COC[C@H]1Nc1nc(ncc1C(F)(F)F)N2` [Ex-6.6, ((10aS,13aS)-3-cyclobutyl-8-(trifluoromethyl)-3,4,10a,11,13a,14-hexahydro-10H,13H-5,9-(azeno)furo[3,4-k]pyrazolo[4,3-b][1]oxa[4,6,10]triazacyclotridecin-1-yl)methanol], the “LRRK2 pIC50” value is reported as >10.09.
For `CC(C)n1nc(CO)c2c1Nc1ncc(C(F)(F)F)c(n1)N[C@@H]1COC[C@H]1CO2` [Ex-6.7, ((10aS,13aS)-3-isopropyl-8-(trifluoromethyl)-3,4,10a,11,13a,14-hexahydro-10H,13H-5,9-(azeno)furo[3,4-k]pyrazolo[4,3-b][1]oxa[4,6,10]triazacyclotridecin-1-yl)methanol], the “LRRK2 pIC50” value was >10.09.
In the case of `Cc1nn(C(C)(C)CO)c2c1Nc1ncc(C(F)(F)F)c(n1)N[C@H](C)CCO2` [Ex-7.3, (R)-2-(3,11-dimethyl-8-(trifluoromethyl)-10,11,12,13-tetrahydro-5,9-(azeno)pyrazolo[3,4-b][1]oxa[4,6,10]triazacyclotridecin-1(4H)-yl)-2-methylpropan-1-ol], the “LRRK2 pIC50” value is reported as >10.09.
In the case of `CC(C)c1nn(C(C)(C)CO)c2c1Nc1ncc(C(F)(F)F)c(n1)N[C@H](C)CCO2` [Ex-7.4, (R)-2-(3-isopropyl-11-methyl-8-(trifluoromethyl)-10,11,12,13-tetrahydro-5,9-(azeno)pyrazolo[3,4-b][1]oxa[4,6,10]triazacyclotridecin-1(4H)-yl)-2-methylpropan-1-ol], the “LRRK2 pIC50” value is reported as >10.09.
In the case of `CC(C)c1nn(C(C)(C)CO)c2c1Nc1ncc(C(F)(F)F)c(n1)N[C@@H]1COC[C@H]1CO2` [Ex-7.5, 2-((10aS,13aS)-3-isopropyl-8-(trifluoromethyl)-10a,11,13a,14-tetrahydro-10H,13H-5,9-(azeno)furo[3,4-k]pyrazolo[3,4-b][1]oxa[4,6,10]triazacyclotridecin-1(4H)-yl)-2-methylpropan-1-ol], the “LRRK2 pIC50” value is reported as >10.09.
In the case of `Cc1cnc2nc1N[C@H](C)CCOc1c(c(C)nn1C(C)(C)CO)N2` [Ex-8.1, (R)-2-methyl-2-(3,8,11-trimethyl-10,11,12,13-tetrahydro-5,9-(azeno)pyrazolo[3,4-b][1]oxa[4,6,10]triazacyclotridecin-1 (4H)-yl)propan-1-ol], the “LRRK2 pIC50” value is reported as >10.09.
In the case of `CC(C)c1nn(C(C)(C)CO)c2c1N(C)c1ncc(C(F)(F)F)c(n1)N[C@H](C)CCO2` [Ex-9.1, (R)-2-(3-isopropyl-4,11-dimethyl-8-(trifluoromethyl)-10,11,12,13-tetrahydro-5,9-(azeno)pyrazolo[3,4-b][1]oxa[4,6,10]triazacyclotridecin-1 (4H)-yl)-2-methylpropan-1-ol], the “LRRK2 pIC50” value is reported as 6.11.
With `CC(C)c1nn(C2CS(=O)(=O)C2)c2c1Nc1ncc(C(F)(F)F)c(n1)N[C@@H]1CC[C@H]1CO2` [Ex-10.1, 3-((10aR,12aR)-3-isopropyl-8-(trifluoromethyl)-10,10a,11,12,12a,13-hexahydro-5,9-(azeno)cyclobuta[k]pyrazolo[3,4-b][1]oxa[4,6,10]triazacyclotridecin-1 (4H)-yl) thietane 1,1-dioxide] the “LRRK2 pIC50” value was >10.09.
With `Cc1nn(C2CCC2)c2c1OC[C@@H]1COC[C@H]1Nc1cc(ncc1C(F)(F)F)N2` [Ex-13.1, (10aR,13aR)-3-Cyclobutyl-1-methyl-8-(trifluoromethyl)-3,4,10a,11,13a,14-hexahydro-10H,13H-5,9-(metheno)furo[3,4-k]pyrazolo[4,3-b][1]oxa[4,6,10]triazacyclotridecine, TFA] the “LRRK2 pIC50” value was >10.09.
With `Cc1nn(C2CCC2)c2c1OC[C@H]1COC[C@@H]1Nc1cc(ncc1C(F)(F)F)N2` [Ex-13.2, (10aR,13aR)-3-cyclobutyl-1-methyl-8-(trifluoromethyl)-3,4,10a,11,13a,14-hexahydro-10H,13H-5,9-(metheno)furo[3,4-k]pyrazolo[4,3-b][1]oxa[4,6,10]triazacyclotridecine] the “LRRK2 pIC50” value was 7.01.
`Cc1nn(C2CCC2)c2c1OC[C@@H]1CC[C@H]1Nc1cc(ncc1Cl)N2` [Ex-13.3, (10aR,12aR)-8-chloro-3-cyclobutyl-1-methyl-3,4,10,10a,11,12,12a,13-octahydro-5,9-(metheno)cyclobuta[k]pyrazolo[4,3-b][1]oxa[4,6,10]triazacyclotridecine] was tested, and the “LRRK2 pIC50” value was >10.09.
With `Cc1nn(C(C)C)c2c1OC[C@@H]1CC[C@H]1Nc1cc(ncc1Cl)N2` [Ex-13.4, (10aR,12aR)-8-chloro-3-isopropyl-1-methyl-3,4,10,10a,11,12,12a,13-octahydro-5,9-(metheno)cyclobuta[k]pyrazolo[4,3-b][1]oxa[4,6,10]triazacyclotridecine] the “LRRK2 pIC50” value was 9.61.
For `Cc1nn(C(C)C)c2c1OC[C@@H]1COC[C@H]1Nc1cc(ncc1C(F)(F)F)N2` [Ex-13.5, (10aS,13aS)-3-isopropyl-1-methyl-8-(trifluoromethyl)-3,4,10a,11,13a,14-hexahydro-10H,13H-5,9-(metheno)furo[3,4-k]pyrazolo[4,3-b][1]oxa[4,6,10]triazacyclotridecine], the “LRRK2 pIC50” value was >10.09.
For `Cc1nn(C2CCC2)c2c1OC[C@@H]1CC[C@H]1Nc1cc(ncc1F)N2` [Ex-13.6, (10aR,12aR)-3-cyclobutyl-8-fluoro-1-methyl-3,4,10,10a,11,12,12a,13-octahydro-5,9-(metheno)cyclobuta[k]pyrazolo[4,3-b][1]oxa[4,6,10]triazacyclotridecine], the “LRRK2 pIC50” value was <5.00.
In the case of `Cc1nn(C2CCC2)c2c1OC[C@@H]1CC[C@H]1Nc1cc(ncc1F)N2` [Ex-13.7, (10aR,12aR)-3-cyclobutyl-8-fluoro-1-methyl-3,4,10,10a,11,12,12a,13-octahydro-5,9-(metheno)cyclobuta[k]pyrazolo[4,3-b][1]oxa[4,6,10]triazacyclotridecine], the “LRRK2 pIC50” value is reported as 5.02.
For `Cc1nn(C2CCC2)c2c1OC[C@@H]1COC[C@H]1Nc1cc(ncc1F)N2` [Ex-13.8, (10aR,13aR)-3-cyclobutyl-8-fluoro-1-methyl-3,4,10a,11,13a,14-hexahydro-10H,13H-5,9-(metheno)furo[3,4-k]pyrazolo[4,3-b][1]oxa[4,6,10]triazacyclotridecine], the “LRRK2 pIC50” value was <5.00.
`Cn1nc(C(F)(F)F)c2c1Nc1cc(c(Cl)cn1)N[C@@H]1COC[C@H]1CO2` [Ex-13.9, (10aS,13aS)-8-chloro-3-methyl-1-(trifluoromethyl)-3,4,10a,11,13a,14-hexahydro-10H,13H-5,9-(metheno)furo[3,4-k]pyrazolo[4,3-b][1]oxa[4,6,10]triazacyclotridecine] was tested, and the “LRRK2 pIC50” value was 8.49.
For `Cc1nn(C2CC2)c2c1OC[C@@H]1CC[C@H]1Oc1nc(ncc1C(F)(F)F)N2` [Ex-14.1, (10aR,13aS)- or (10aS,13aR)-3-Cyclopropyl-1-methyl-8-(trifluoromethyl)-3,4,10a,11,12a,13-hexahydro-12H-5,9-(azeno)cyclobuta[k]pyrazolo[4,3-b][1,10]dioxa[4,6]diazacyclotridecine], the “LRRK2 pIC50” value was 8.78.
`Cc1nn(C2CC2)c2c1OC[C@H]1CC[C@@H]1Oc1nc(ncc1C(F)(F)F)N2` [Ex-14.2, (10aR,13aS)- or (10aS,13aR)-3-Cyclopropyl-1-methyl-8-(trifluoromethyl)-3,4,10a,11,12a,13-hexahydro-12H-5,9-(azeno)cyclobuta[k]pyrazolo[4,3-b][1,10]dioxa[4,6]diazacyclotridecine] was tested, and the “LRRK2 pIC50” value was 5.16.
With `COc1cccc2c1Nc1ncc(C(F)(F)F)c(n1)N[C@H]1COC[C@@H]1CO2` [Ex-15.1] the “LRRK2 pIC50” value was >10.09.
With `COc1cccc2c1Nc1ncc(Cl)c(n1)N[C@@H]1COC[C@H]1CO2` [Ex-15.2, (3aS,16aS)-6-chloro-11-methoxy-3a,4,16,16a-tetrahydro-1H,3H,10H-5,9-(azeno)benzo[b]furo[3,4-k][1]oxa[4,6,10]triazacyclotridecine] the “LRRK2 pIC50” value was 9.65.

Reference: patent US20250313575A1, “MACROCYCLES AS LRRK2 INHIBITORS, PHARMACEUTICAL COMPOSITIONS, AND USES THEREOF” (Merck Sharp & Dohme LLC, priority 2022, published 2025)
